Read-outs that look alike come from different tables or passages of the source.
How the values were obtained:
A1 adenosine receptor = A1 adenosine receptor (Homo sapiens, UniProt P30542); details: cited from earlier work
[1] = target: T1, human A1 adenosine receptor (Homo sapiens, UniProt P30542); assay: Displacement binding of [3H]CPX, yeast membranes expressing hA1R
T1 sequence (P30542 1-326): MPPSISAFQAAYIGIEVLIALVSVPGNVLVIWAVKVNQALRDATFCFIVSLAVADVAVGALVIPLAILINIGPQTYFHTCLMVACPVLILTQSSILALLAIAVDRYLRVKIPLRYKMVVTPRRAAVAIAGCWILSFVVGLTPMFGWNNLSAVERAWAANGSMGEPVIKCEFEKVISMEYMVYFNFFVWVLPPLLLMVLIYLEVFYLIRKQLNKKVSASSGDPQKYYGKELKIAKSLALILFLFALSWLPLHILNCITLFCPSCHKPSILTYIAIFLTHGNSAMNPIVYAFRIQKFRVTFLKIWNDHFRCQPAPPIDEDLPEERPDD

human A3 receptor = target: T2, human A3 receptor (Homo sapiens, UniProt P0DMS8); assay: Displacement binding of [3H]CPX, yeast membranes expressing hA3R
T2 sequence (P0DMS8 1-318): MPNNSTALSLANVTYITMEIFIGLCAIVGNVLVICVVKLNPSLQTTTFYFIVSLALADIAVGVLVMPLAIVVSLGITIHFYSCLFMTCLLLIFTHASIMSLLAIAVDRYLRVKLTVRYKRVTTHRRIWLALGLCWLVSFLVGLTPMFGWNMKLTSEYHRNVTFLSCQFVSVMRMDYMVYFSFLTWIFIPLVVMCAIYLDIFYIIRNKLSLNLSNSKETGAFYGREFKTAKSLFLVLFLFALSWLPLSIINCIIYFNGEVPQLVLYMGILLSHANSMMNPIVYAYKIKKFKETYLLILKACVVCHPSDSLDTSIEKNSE

[2] = target: T3, human adenosine A1 receptor (Homo sapiens, UniProt P30542); assay: Yeast β-Galactosidase reporter gene assay, inhibition of NECA-induced activity, strain CY12660
T3 sequence (P30542 1-326): T1 sequence (P30542 1-326)

[3] = target: T4, human A1 receptor subtype (Homo sapiens, UniProt P30542); assay: biochemical
T4 sequence (P30542 1-326): T1 sequence (P30542 1-326)

[4] = target: T5, human A2a receptor subtype (Homo sapiens, UniProt P29274); assay: Adenosine 2a receptor subtype competition radioligand binding, [3H]CGS-21680, HEK293 membranes; details: Table 13; concentration not given
T5 construct: expressed in transfected cells; host or cells: HEK-293 (Cadus clone #5), membranes
T5 sequence (P29274 whole entry): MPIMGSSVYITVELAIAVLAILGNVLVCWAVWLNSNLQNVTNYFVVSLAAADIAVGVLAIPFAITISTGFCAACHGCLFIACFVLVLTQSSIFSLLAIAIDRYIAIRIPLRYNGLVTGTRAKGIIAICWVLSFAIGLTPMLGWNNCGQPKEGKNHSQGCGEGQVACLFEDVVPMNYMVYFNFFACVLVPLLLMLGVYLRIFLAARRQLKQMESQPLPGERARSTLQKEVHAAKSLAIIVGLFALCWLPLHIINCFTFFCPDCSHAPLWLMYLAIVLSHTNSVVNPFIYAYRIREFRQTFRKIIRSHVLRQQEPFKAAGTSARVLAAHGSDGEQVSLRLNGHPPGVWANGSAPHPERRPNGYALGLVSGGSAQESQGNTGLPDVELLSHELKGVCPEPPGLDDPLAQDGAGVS

[5] = target: T6, human A2b receptor subtype (Homo sapiens, UniProt P29275); assay: Adenosine 2b receptor subtype competition radioligand binding, [3H]DPCPX, HEK293 membranes; details: Table 13
T6 construct: expressed in transfected cells; host or cells: HEK293, membranes
T6 sequence (P29275 1-332): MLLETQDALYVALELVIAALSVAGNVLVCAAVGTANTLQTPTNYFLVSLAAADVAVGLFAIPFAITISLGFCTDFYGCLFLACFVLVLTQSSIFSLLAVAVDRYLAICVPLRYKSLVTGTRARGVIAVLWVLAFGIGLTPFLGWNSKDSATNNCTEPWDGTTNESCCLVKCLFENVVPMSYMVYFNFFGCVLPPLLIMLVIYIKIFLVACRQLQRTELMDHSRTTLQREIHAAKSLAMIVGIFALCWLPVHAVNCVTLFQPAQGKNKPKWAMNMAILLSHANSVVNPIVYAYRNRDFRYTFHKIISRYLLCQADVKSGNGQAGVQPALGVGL

[6] = target: T7, human A3 receptor subtype (Homo sapiens, UniProt P0DMS8); assay: Adenosine 3 receptor competition radioligand binding, [125I]AB-MECA, HEK293 membranes
T7 sequence (P0DMS8 1-318): T2 sequence (P0DMS8 1-318)

[7] = target: T4, human A1 receptor subtype; details: Table 13; concentration not given
[8] = A1 Yeast IC50 (nM), Table 6, Effect of N6-Substituent
[9] = A1 Binding Ki (nM), Table 6, Effect of N6-Substituent
[10] = A1 Yeast IC50 (nM), Table 10, Effect of N6-Substituent
[11] = A1 Binding Ki (nM), Table 10, Effect of N6-Substituent

| Structure (SMILES) | IC50 [2, 10] | Ki [3, 11] | further results |
| --- | --- | --- | --- |
| CC(Cc1ccccc1)Nc1ncnc2c1ncn2[C@@H]1O[C@H](CO)[C@@H](O)[C@H]1O (single isomer, unassigned; (-)) [PIA, (−)-N6-(2-phenylisopropyl)-adenosine] |  |  | reported affinity (A1 adenosine receptor): approximately 50 nM |
| O=c1nc2[nH]c3ccccc3nc-2c(=O)[nH]1 [Alloxazine] |  |  | IC50 [1]: 1070 nM; IC50 (human A3 receptor): 8220 nM |
| Cc1[nH]c2nc(-c3ccccc3)nc(NC3CCC(NS(C)(=O)=O)CC3)c2c1C (stereo not shown) [Compound 604] |  |  | IC50 [2, 8]: > 10000 nM |
| CC(=O)NC1CCC(Nc2nc(-c3ccccc3)nc3[nH]c(C)c(C)c23)CC1 (stereo not shown) [Compound 605] |  |  | IC50 [2, 8]: > 10000 nM; Ki [3, 9]: > 10000 nM |
| Cc1[nH]c2nc(-c3ccccc3)nc(NC3CCC(OC(=O)c4ccccc4)CC3)c2c1C (stereo not shown) [Compound 606] |  |  | IC50 [2]: > 10000 nM |
| Cc1[nH]c2nc(-c3ccccc3)nc(NC3CCC(OC(=O)c4ccccc4)CC3)c2c1C (stereo not shown) [Compound 611] |  |  | IC50 ([2]; read-out: A1 Yeast IC50, Table 6, Effect of N6-Substituent): > 10000 nM |
| Cc1[nH]c2nc(-c3ccccc3)nc(N[C@@H]3CCC[C@H]3O)c2c1C [Compound 614] |  |  | Ki [3, 9]: 32.1 nM |
| Cc1[nH]c2nc(C3CCCC3)nc(N[C@H]3CC[C@H](O)CC3)c2c1C [Compound 703] |  |  | IC50 ([2]; A1 Yeast IC50 (nM), Table 7, Effect of C2-Substituent): > 10000 nM; Ki ([3]; A1 Binding Ki (nM), Table 7, Effect of C2-Substituent): 444 nM |
| Cc1[nH]c2nc(-c3ccc(F)cc3)nc(NC3CCC(O)CC3)c2c1C (stereo not shown) [Compound 707] |  |  | Ki [3]: 62.8 nM |
| Cc1c(C)n(C)c2nc(-c3ccccc3)nc(N[C@H]3CC[C@H](O)CC3)c12 [Compound 800] |  |  | IC50 [2]: > 10000 nM; Ki [3]: 3310 nM |
| Cc1c(C)n(C(C)c2ccccc2)c2nc(-c3ccccc3)nc(NCC(C)C)c12 (stereo not shown) [Compound 903] |  |  | Ki ([3]; A1 Binding Bi (nM), Table 9): 35.3 nM |
| Cc1[nH]c2nc(-c3ccccc3)nc(NCCNC=O)c2c1C [Compound 1001] | 1870 nM | 54.4 nM |  |
| CCC(=O)NCCNc1nc(-c2ccccc2)nc2[nH]c(C)c(C)c12 [Compound 1003] | 196 nM | 26.7 nM |  |
| Cc1[nH]c2nc(-c3ccccc3)nc(NCCNC(=O)C(C)C)c2c1C [Compound 1005] | 3970 nM | 147 nM |  |
| CC(=O)C(=O)NCCNc1nc(-c2ccccc2)nc2[nH]c(C)c(C)c12 [Compound 1006] | 2920 nM | 152 nM |  |
| Cc1[nH]c2nc(-c3ccccc3)nc(NCCNS(C)(=O)=O)c2c1C [Compound 1007] |  | 692 nM |  |
| Cc1[nH]c2nc(-c3ccccc3)nc(NCCNC(=O)CCC(=O)O)c2c1C [Compound 1008] | 3220 nM | 93.1 nM |  |
| Cc1[nH]c2nc(-c3ccccc3)nc(NCCNC(=O)CCN)c2c1C [Compound 1009] |  | 475 nM |  |
| CC(=O)NCCCNc1nc(-c2ccccc2)nc2[nH]c(C)c(C)c12 [Compound 1010] | 9380 nM | 675 nM |  |
| CC(=O)OCCNc1nc(-c2ccccc2)nc2[nH]c(C)c(C)c12 [Compound 1011] | 2070 nM | 122 nM |  |
| CCC(=O)NCCCNc1nc(-c2ccccc2)nc2[nH]c(C)c(C)c12 [Compound 1013] | 3010 nM | 270 nM |  |
| Cc1[nH]c2nc(-c3ccccc3)nc(NCCCCO)c2c1C [Compound 1016] | 5050 nM | 176 nM |  |
| CC(=O)NC(C)CNc1nc(-c2ccccc2)nc2[nH]c(C)c(C)c12 (stereo not shown) [Compound 1104] |  |  | IC50 ([2]; A1 Yeast IC50 (nM), Table 11, Effect of N6-Substituent): 58.7 nM |
| CNC(=O)NCCCNc1nc(-c2ccccc2)nc2[nH]c(C)c(C)c12 [Compound 1310] |  |  | Binding A2a, value given in % [4]: 76% |
| CC(=O)NCCCCNc1nc(-c2ccccc2)nc2[nH]c(C)c(C)c12 [Compound 1311] |  |  | Ki [5]: 736 nM; Ki [6]: 5.3 nM |
| Cc1[nH]c2nc(-c3ccccc3)nc(NCCNC(=O)C3(N)CC3)c2c1C [Compound 1313] |  |  | Binding A2a, value given in % [4]: 65%; Binding A1, value printed in % [7]: 30% |
| CC(=O)NCCNc1nc(-c2ccccc2)nc2[nH]c(COc3ccccc3)cc12 [Example 17, 4-(2-acetylaminoethyl)amino-6-phenoxymethyl-2-phenyl-7H-pyrrolo[2,3d]pyrimidine] |  |  | melting point: 196 to 197 °C |

Further lines, with some results ahead:

| IC50 [2, 10] | Ki [3, 11] | Structure (SMILES) | further results |
| --- | --- | --- | --- |
| 546 nM | 32.8 nM | Cc1[nH]c2nc(-c3ccccc3)nc(NCCNC(=O)C3CC3)c2c1C [Compound 1004] |  |
| 2000 nM | 385 nM | Cc1[nH]c2nc(-c3ccccc3)nc(NCCO)c2c1C [Compound 1014] |  |

Reference: patent US6686366B1, “Compounds specific to adenosine A3 receptor and uses thereof” (OSI Pharmaceuticals, Inc., priority 1998, dated 2004)
